Source: PubChem BioAssay (NCI)
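Growth conditions: 96-well plates. Treatment: test compound, 48 hours, 5 concentrations. Analysis: linear interpolation between bracketing concentrations; unreached endpoints set to highest concentration. Here, GI50 denotes the concentration required for 50% inhibition of growth. TGI is the concentration that stops growth completely.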

Tests used:
Test in all cases: NCI-60 cell line screen, 48 h
UACC-62 melanoma = system: UACC-62 melanoma
HOP-62 NSCLC = system: HOP-62 NSCLC
EKVX NSCLC = system: EKVX NSCLC
NCI-H522 lung = system: NCI-H522 lung
CAKI-1 renal = system: CAKI-1 renal
MALME-3M melanoma = system: MALME-3M melanoma
SNB-19 CNS = system: SNB-19 CNS
SK-OV-3 ovarian = system: SK-OV-3 ovarian
TK-10 renal = system: TK-10 renal
SR leukemia = system: SR leukemia

Compound | GI50 (UACC-62 melanoma) [µM] | TGI (UACC-62 melanoma) [µM] | GI50 (HOP-62 NSCLC) [µM] | TGI (HOP-62 NSCLC) [µM] | GI50 (EKVX NSCLC) [µM] | TGI (EKVX NSCLC) [µM] | GI50 (NCI-H522 lung) [µM] | TGI (NCI-H522 lung) [µM] | GI50 (CAKI-1 renal) [µM] | TGI (CAKI-1 renal) [µM] | GI50 (MALME-3M melanoma) [µM] | TGI (MALME-3M melanoma) [µM] | GI50 (SNB-19 CNS) [µM] | TGI (SNB-19 CNS) [µM] | GI50 (SK-OV-3 ovarian) [µM] | TGI (SK-OV-3 ovarian) [µM] | GI50 (TK-10 renal) [µM] | TGI (TK-10 renal) [µM] | GI50 (SR leukemia) [µM] | TGI (SR leukemia) [µM]
O=C1NC(=O)C(c2ccccc2Cl)=C1Nc1cccc(O)c1 | 2.25 | > 25 | 3.89 | > 25 | > 22.5 | > 25 | 2.17 | > 25 | 4.41 | > 25 | > 25 | > 25 | 21.4 | > 25 | 4.99 | > 25 | 10.7 | > 25 | 1.97 | > 25
CC1=CC[C@@H]2C(C)(C)[C@@H](O)CC[C@@]2(C)[C@@H]1COc1ccc2ccc(=O)oc2c1 | 3.52 | 14.5 | 6.84 | 26.1 | 10.3 | 26.7 | 3.81 | 22.1 | 4.11 | 20.9 | 8.04 | 22.4 | 14.3 | 42.9 | 15.5 | 32.3 | 12.5 | 26.4 | 7.92 | 42
Cc1ccc(C)c(NC(=O)/C(=N\NC(N)=S)C(C#N)c2ccccc2)c1 (configuration not stated) | – | > 100 | – | > 100 | – | > 100 | – | > 100 | – | > 100 | – | > 100 | – | > 100 | – | > 100 | – | > 100 | – | > 100
O=C(O)c1nnsc1COCc1ccccc1 | – | > 100 | – | > 100 | – | > 100 | – | > 100 | – | > 100 | – | > 100 | – | > 100 | – | > 100 | – | > 100 | – | > 100
Cc1ccc(S(=O)(=O)NCCN2c3nc4ccccc4cc3Sc3cc4ccccc4nc32)cc1 | 11.4 | 51.4 | 16.5 | 98.9 | > 77 | > 100 | 44.4 | > 100 | 13.8 | > 71.7 | 23.2 | > 100 | 10.5 | 67.7 | 7.82 | 54.2 | 28.6 | > 100 | > 100 | > 100
CC(SC1=CC(=O)c2c(O)ccc(O)c2C1=O)C(=O)O (configuration not stated) | – | 36.6 | – | > 100 | – | > 100 | – | 9.79 | – | 72.2 | – | > 64.6 | – | > 100 | – | > 100 | – | > 82.2 | – | > 100
CC(=O)O/C(C)=C\C(=O)O/N=C(\N)c1ccc(C)cc1 | – | 56.7 | – | > 100 | – | > 100 | – | 49.1 | – | > 100 | – | 71.5 | – | > 100 | – | > 100 | – | > 100 | – | > 100
CC1(C)C(=O)/C(=C\c2ccco2)C[C@]2(C)[C@H]3CC=C4[C@@H]5C[C@](C)(C(=O)O)CC[C@]5(C)CC[C@@]4(C)[C@]3(C)CC[C@@H]12 | 6.49 | 20.3 | 10.1 | 28.5 | 4.63 | 17.3 | 9.26 | 25.6 | 10.6 | 28.2 | 12.7 | 29.3 | 10.2 | 22.7 | 14.4 | 29.3 | 13.1 | 36.7 | 9.85 | > 100
Nc1ncnc2c1ncn2C1OC(C(=O)O)C(O)C1O (configuration not stated) | – | > 100 | – | > 100 | – | > 100 | – | > 100 | – | > 100 | – | > 100 | – | > 100 | – | > 100 | – | > 100 | – | > 100
O=c1oc2c3ccc4ccccc4c3n(Cc3nc4ccccc4[nH]3)c2c2ccccc12 | – | > 100 | – | 75.3 | – | > 31.6 | – | > 100 | – | > 100 | – | > 100 | – | > 100 | – | > 100 | – | > 100 | – | > 100
CCC(=O)N1C/C(=C/c2ccc(OC)cc2)C(=O)/C(=C/c2ccc(OC)cc2)C1 | 1.6 | 3.01 | 2.79 | 6.45 | – | – | 1.85 | 3.86 | 2.74 | 9.73 | 2.47 | 6.26 | 2.93 | 19.3 | 4.61 | 27.9 | 2.72 | 6.54 | 0.382 | > 100
O=C(Nc1ccc(Br)cc1)c1cc(Br)cc(Br)c1O | 2.56 | 15 | 2.45 | 6.5 | 1.76 | 7.38 | 2.23 | 7.7 | 1.73 | 4.59 | 2.15 | 5.63 | 3.55 | > 100 | 3.14 | > 100 | 4.2 | > 100 | 3.87 | > 100
c1ccc2c(NCCCCCCCCNc3c4ccccc4nc4ccccc34)c3ccccc3nc2c1 | – | 2.19 | – | 2.24 | – | 2.8 | – | 1.88 | – | 2.18 | – | 2.63 | – | 3.43 | – | 2.71 | – | 5.98 | – | 0.755
Cc1ccc(-c2cc3nc(-c4ccccc4)nc(C(Cl)Cl)n3n2)cc1 | 0.933 | 2.1 | 0.666 | 2.11 | 0.752 | 1.51 | > 50 | > 50 | 0.668 | 1.33 | 36.1 | > 50 | 0.759 | 1.73 | 1.52 | 18.6 | 0.944 | 1.8 | 3.73 | > 50
CCCCc1cc(O)ccc1O | 27.7 | > 100 | 53.7 | > 100 | 41.9 | > 100 | 2.28 | 6.97 | 33 | > 100 | 21.6 | 65.4 | 78.5 | > 100 | 64.5 | > 100 | 17.9 | 42.8 | 8.26 | > 100
N#C/C(=C(\O)C(=O)O)c1ccc(-c2cccc3ccccc23)cc1 | – | > 100 | – | > 100 | – | > 100 | – | > 100 | – | > 100 | – | > 100 | – | > 100 | – | > 100 | – | > 100 | – | > 100
COc1ccc([N+](=O)[O-])c2c(NCC(O)CO)ccnc12 (configuration not stated) | – | 58.9 | – | > 100 | – | 82.3 | – | 30.2 | – | > 100 | – | 44.7 | – | > 100 | – | > 100 | – | > 100 | – | > 100
Cn1c(=O)c2c(nc3n2CCC(=O)N3)n(C)c1=O | – | > 100 | – | > 100 | – | > 100 | – | > 100 | – | > 100 | – | > 100 | – | > 100 | – | > 100 | – | > 100 | – | > 100
O=S(=O)(O)c1ccc2cc(N=Nc3cc(S(=O)(=O)O)c4cccnc4c3O)ccc2c1 | – | > 100 | – | > 100 | – | > 100 | – | > 100 | – | > 100 | – | > 100 | – | > 100 | – | > 100 | – | > 100 | – | > 100
COC(=O)c1ccc2c(c1)c1c(C)c3cnccc3c(C)c1n2C | 0.0416 | 0.151 | 0.0538 | 0.995 | 0.186 | 0.623 | 0.0667 | 0.528 | 0.0354 | 0.61 | 0.0615 | 0.314 | 0.0509 | 7.65 | 0.107 | 0.527 | 0.277 | 3.35 | 0.0372 | 2.04
CN(C)CCNC(=O)c1cccc(CO)c1[N+](=O)[O-] | – | > 100 | – | > 100 | – | – | – | > 100 | – | > 100 | – | > 100 | – | > 100 | – | > 100 | – | > 100 | – | > 100
CN(C)CCNc1cccc2sc3ccc(O)cc3c(=O)c12 | 1.43 | 2.87 | 2.29 | 6.58 | – | – | 1.77 | 5.66 | 2.22 | 13.3 | 1.59 | 3.13 | 4.04 | 17.4 | 3.36 | 14.4 | 5.58 | 17.5 | 1.08 | 4.37
C=C1C(O)C2C(=C(CC(C)C)C13CC3)C(=O)C(C)(C)C2OC (configuration not stated) | > 100 | > 100 | > 100 | > 100 | > 100 | > 100 | > 100 | > 100 | – | – | > 100 | > 100 | > 100 | > 100 | > 100 | > 100 | > 100 | > 100 | 82.9 | > 100
Cc1cc2occ(C)c(=O)c2c2c1OC(C)(C)S2 | – | > 100 | – | > 100 | – | > 100 | – | > 100 | – | – | – | > 100 | – | > 100 | – | > 100 | – | > 100 | – | > 100
